Patent publication US12523664B2, “Sensor chip and methods thereof” (NATIONAL UNIVERSITY OF SINGAPORE, priority 2019, dated 2026)
Entries after “also recorded” stand apart in the source; their conditions may differ.

Target: amylogenic protein (Homo sapiens, UniProt P05067)
Experiment: Protein aggregation with or without inhibitor, aggregate size by dynamic light scattering
Format: biochemical
Conditions: 10 μM inhibitor added before 1 h incubation with agitation
Experimental: Aggregate size determination. Hydrodynamic diameter of amylogenic protein and BSA aggregates were determined by dynamic light scattering analysis (Zetasizer Nano ZSP, Malvern). 3×14 measurement runs were performed at 4° C. Z-average diameter and polydispersity were analyzed. For every measurement, the auto-correlation function and polydispersity index were monitored to ensure sample quality for size determination.
Protein aggregation. Lyophilized amylogenic protein was resuspended in NaOH (60 mM, 4° C.), sonicated, and pH adjusted to pH 7.4 in PBS. The protein was immediately filtered through a 0.2-μm membrane filter (Millipore) and the filtrate was used as the small initial aggregates. For preparation of the bigger aggregates, the protein was treated as described above and incubated with agitation for 1 h to induce further aggregation. […] Aggregate size determination was performed at the end of the incubation.

Sequence of amylogenic protein (P05067 672-713 limits assumed): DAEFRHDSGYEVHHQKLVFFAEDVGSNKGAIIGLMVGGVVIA

Q: `CN(C)c1ccc2nc3ccc(=[N+](C)C)cc-3sc2c1` [inhibitor, methylene blue] was tested. Which “increase in size as a result of spontaneous protein aggregation” value did it give?
A: reduced spontaneous protein aggregation; also recorded: minimal
